According to ChEMBL document CHEMBL1201862, “PubChem BioAssay data set” (2004):
Calls of active or inactive are those of the source.

Tests used:
[1] = molecular target: Transthyretin (Homo sapiens, UniProt P02766); experiment: Luminescence-based cell-based high throughput dose response assay to identify activators of Transthyretin (TTR) transcription.; format: functional
[2] = molecular target: Heat shock protein HSP 90-alpha (Homo sapiens, UniProt P07900); experiment: Luminescence-based dose response biochemical high throughput screening assay for inhibitors of the Heat Shock Protein 90 (HSP90). [Related pubchem assays: 1831 (Summary AID.), 1846 (Confirmation screen.), 1789 (Primary screen.)]
[3] = system: A-375; experiment: MITF: Counter assay: A375 proliferation Measured in Cell-Based System Using Plate Reader - 2084-03_Inhibitor_Dose_DryPowder_Activity. [Related pubchem assays (depositor defined):AID488944]; format: functional; settings: Homo sapiens
[4] = system: A-375; experiment: proliferation inhibition in MITF-low A375 cells – cell-based, cherry-pick samples, set 2, counter-screen for MITF modulator project, dose response (AID 540335); format: functional; settings: Homo sapiens
[5] = viability loss in Vero cells – cytotoxicity control for Vif-APOBEC3G degradation inhibitor project, dose response (AID 1117358); format: functional; settings: Vero
[6] = Luminescence-based cell-based high throughput dose response assay to identify activators of the DAF-12 from the parasite S. stercoralis (ssDAF-12).; format: functional
[7] = molecular target: T1, Oxysterols receptor LXR-beta (Homo sapiens, UniProt P55055); format: functional, cell-based;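 also: Cell-based luminescence dose-response assay of agonist activity at LXR, run as a confirmatory counterscreen to a daf-12 agonist screen; agonist potency from rising luciferase signal of a Gal4-LXR reporter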
T1 sequence (P55055 whole entry): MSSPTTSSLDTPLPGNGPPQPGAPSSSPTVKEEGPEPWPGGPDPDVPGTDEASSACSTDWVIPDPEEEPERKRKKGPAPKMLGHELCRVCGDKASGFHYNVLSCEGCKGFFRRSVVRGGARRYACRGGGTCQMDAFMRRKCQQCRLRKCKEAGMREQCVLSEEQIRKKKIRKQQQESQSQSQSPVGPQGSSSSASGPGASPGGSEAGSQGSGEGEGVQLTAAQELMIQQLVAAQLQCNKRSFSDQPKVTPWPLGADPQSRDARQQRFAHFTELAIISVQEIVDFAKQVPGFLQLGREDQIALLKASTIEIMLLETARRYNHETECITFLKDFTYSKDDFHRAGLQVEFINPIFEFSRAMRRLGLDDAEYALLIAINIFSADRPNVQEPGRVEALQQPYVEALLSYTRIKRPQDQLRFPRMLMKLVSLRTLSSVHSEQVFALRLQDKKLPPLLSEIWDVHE

[8] = cells
[9] = molecular target: T1, Oxysterols receptor LXR-beta; experiment: LXR agonists, Gal4 luciferase reporter, dose response, counter-screen for ssDAF-12 agonist project, cell-based, luminescence, HEK293, S. stercoralis campaign (AID 720737); format: functional; settings: read-out: IC50 (the source's name)
[10] = HIV-1 Vif–A3G interaction blockers – biochemical, TR-FRET, GST-Vif 1-94, biotin-A3G peptide, dose response retest, primary screen (AID 1117319); format: functional;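 also: TR-FRET signal of purified GST-Vif binding a biotinylated A3G peptide; inhibitors lower the FRET signal by blocking Vif and A3G binding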
[11] = molecular target: E3 ubiquitin-protein ligase Mdm2 (Homo sapiens, UniProt Q00987); experiment: MDM2-luc reporter signal enhancers, multi-concentration potency testing, MDM2 ubiquitin-protein ligase inhibitor program, whole-cell format, luminescence detection, 384-well microplate (AID 1394); format: functional;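 also: MDM2 E3 inhibitors raise luminescence so EC50 is for signal enhancement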
[12] = cells; settings: A549
[13] = Counterscreen for activators of the function of SWI/SNF related, matrix associated, actin dependent regulator of chromatin, subfamily a, member 2 (SMARCA2, BRM): Luminescence-based cell-based high throughput dose response assay to identify non-selective compounds using the VP16 reporter assay.; format: functional
[14] = viability loss in HepG2 liver cells – cell-based, ATP luminescence, cherry-pick, set 6, cytotoxicity control, dose response (AID 1053125); format: functional
[15] = cells; settings: HEK293
[16] = molecular target: SWI/SNF-related matrix-associated actin-dependent regulator of chromatin subfamily A member 2 (Homo sapiens, UniProt P51531); experiment: Luminescence-based cell-based high throughput dose response assay to identify activators of the function of SWI/SNF related, matrix associated, actin dependent regulator of chromatin, subfamily a, member 2 (SMARCA2, BRM).; format: functional
[17] = system: HEK293; experiment: viability loss in HEK293T cells – cell-based, ATP luminescence, cherry-pick samples, cytotoxicity control, dose response (AID 687005); format: functional; settings: Homo sapiens;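 also: cells exposed to compound for 48 hours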
[18] = HEK293 Cytotoxicity Assay Measured in Cell-Based System Using Plate Reader - 7071-01_Inhibitor_Dose_CherryPick_Activity_Set2.; format: functional
[19] = OVCAR4 cell viability loss – plate reader, dry powder, SA11, cytotoxicity control for PAX8 inhibitor project, dose response (AID 743150); format: functional, cell-based; settings: OVCAR-4
[20] = PAX5 cellular inhibition readout – cell-based, plate reader, dry powder samples, selectivity assay for PAX8 inhibitor project, dose response (AID 743047); format: functional;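 also: HEK293 cells carrying a Pax5 driven CD19 promoter luciferase reporter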
[21] = toxicity toward immortalized ovarian surface epithelium – cell-based, plate reader, dry powder samples, cytotoxicity control for PAX8 inhibitor project, dose response (AID 743045); format: functional
[22] = OV-90 cell viability loss – plate reader, dry powder, SA8, PAX8 inhibitor project, dose response (AID 743149); format: functional, cell-based
[23] = OVCAR-3 cell viability loss – plate reader, dry powder samples, PAX8 inhibitor project, dose response (AID 743044); format: functional, cell-based
[24] = PAX8-dependent cell viability loss – plate reader, dry powder, dose response (AID 743049); format: functional, cell-based
[25] = inhibitors acting on PAX2 in cells – cell-based, plate reader, dry powder samples, selectivity assay for PAX8 inhibitor project, dose response (AID 743048); format: functional;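 also: HEK293 cells carrying a WT1 promoter luciferase reporter driven by expressed Pax2; potency is for inhibition of Pax2 driven reporter signal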
[26] = COV362 cell viability loss – plate reader, dry powder, SA12, cytotoxicity control for PAX8 inhibitor project, dose response (AID 743144); format: functional, cell-based
[27] = molecular target: Paired box protein Pax-8 (Homo sapiens, UniProt Q06710); experiment: PAX8 transcriptional activity inhibition in RMG-I – RMG-I cells, luciferase, cherry-pick, dose response (AID 687027); format: functional, cell-based;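 also: luciferase reporter driven by Pax8 target thyroperoxidase promoter measured by SteadyGlo luminescence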
[28] = IGROV1 cell killing – plate reader, dry powder samples, PAX8 inhibitor project, dose response (AID 743043); format: functional, cell-based; settings: IGROV-1
[29] = COV434 cell viability loss – plate reader, dry powder, SA7, cytotoxicity control for PAX8 inhibitor project, dose response (AID 743145); format: functional, cell-based
[30] = A2780 cell killing – plate reader, dry powder samples, cytotoxicity control, dose response (AID 743046); format: functional, cell-based
[31] = OVCAR8 cell viability loss – plate reader, dry powder samples, PAX8 project, dose response (AID 743197); format: functional, cell-based; settings: OVCAR-8

Sequence of SWI/SNF-related matrix-associated actin-dependent regulator of chromatin subfamily A member 2 (P51531 whole entry): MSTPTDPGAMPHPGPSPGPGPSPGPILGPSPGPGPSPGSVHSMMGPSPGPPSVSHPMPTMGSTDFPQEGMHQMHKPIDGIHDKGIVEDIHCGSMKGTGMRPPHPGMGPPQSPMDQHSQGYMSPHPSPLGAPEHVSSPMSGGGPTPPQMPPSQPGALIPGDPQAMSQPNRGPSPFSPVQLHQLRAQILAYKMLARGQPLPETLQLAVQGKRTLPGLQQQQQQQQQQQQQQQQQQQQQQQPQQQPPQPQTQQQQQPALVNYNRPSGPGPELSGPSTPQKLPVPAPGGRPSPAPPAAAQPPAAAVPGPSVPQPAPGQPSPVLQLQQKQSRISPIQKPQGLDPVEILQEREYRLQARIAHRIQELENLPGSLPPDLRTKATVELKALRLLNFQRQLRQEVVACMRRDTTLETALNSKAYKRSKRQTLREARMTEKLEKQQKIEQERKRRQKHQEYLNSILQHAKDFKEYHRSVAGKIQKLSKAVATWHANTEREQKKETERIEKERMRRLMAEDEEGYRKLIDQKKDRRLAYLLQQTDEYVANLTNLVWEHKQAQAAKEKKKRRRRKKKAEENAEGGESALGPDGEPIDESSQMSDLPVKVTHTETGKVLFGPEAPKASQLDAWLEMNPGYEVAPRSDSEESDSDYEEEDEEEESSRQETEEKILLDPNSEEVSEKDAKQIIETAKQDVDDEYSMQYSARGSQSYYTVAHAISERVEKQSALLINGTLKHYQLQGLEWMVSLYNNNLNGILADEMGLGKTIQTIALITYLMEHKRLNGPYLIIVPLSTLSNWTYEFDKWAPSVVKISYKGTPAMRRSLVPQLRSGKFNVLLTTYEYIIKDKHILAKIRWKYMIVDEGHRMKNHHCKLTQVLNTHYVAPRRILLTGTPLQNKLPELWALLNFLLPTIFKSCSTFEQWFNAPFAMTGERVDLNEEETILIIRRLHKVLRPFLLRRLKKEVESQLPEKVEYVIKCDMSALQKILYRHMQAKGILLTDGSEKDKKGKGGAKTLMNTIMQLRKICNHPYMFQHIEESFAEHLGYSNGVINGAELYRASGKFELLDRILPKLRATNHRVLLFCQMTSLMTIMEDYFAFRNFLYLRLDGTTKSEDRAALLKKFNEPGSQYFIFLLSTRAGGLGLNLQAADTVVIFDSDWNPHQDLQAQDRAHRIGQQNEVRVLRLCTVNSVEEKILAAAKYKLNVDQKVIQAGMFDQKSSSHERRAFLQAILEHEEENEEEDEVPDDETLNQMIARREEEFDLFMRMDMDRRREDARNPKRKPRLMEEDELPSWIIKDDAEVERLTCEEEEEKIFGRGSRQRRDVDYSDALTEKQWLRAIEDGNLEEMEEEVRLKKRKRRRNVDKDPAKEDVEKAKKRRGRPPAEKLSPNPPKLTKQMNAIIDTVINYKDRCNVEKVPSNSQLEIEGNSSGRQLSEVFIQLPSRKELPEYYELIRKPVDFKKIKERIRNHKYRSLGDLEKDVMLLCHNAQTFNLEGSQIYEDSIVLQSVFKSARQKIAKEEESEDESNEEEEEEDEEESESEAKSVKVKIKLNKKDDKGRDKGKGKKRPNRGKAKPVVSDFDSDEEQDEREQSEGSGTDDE
Sequence of Paired box protein Pax-8 (Q06710 whole entry): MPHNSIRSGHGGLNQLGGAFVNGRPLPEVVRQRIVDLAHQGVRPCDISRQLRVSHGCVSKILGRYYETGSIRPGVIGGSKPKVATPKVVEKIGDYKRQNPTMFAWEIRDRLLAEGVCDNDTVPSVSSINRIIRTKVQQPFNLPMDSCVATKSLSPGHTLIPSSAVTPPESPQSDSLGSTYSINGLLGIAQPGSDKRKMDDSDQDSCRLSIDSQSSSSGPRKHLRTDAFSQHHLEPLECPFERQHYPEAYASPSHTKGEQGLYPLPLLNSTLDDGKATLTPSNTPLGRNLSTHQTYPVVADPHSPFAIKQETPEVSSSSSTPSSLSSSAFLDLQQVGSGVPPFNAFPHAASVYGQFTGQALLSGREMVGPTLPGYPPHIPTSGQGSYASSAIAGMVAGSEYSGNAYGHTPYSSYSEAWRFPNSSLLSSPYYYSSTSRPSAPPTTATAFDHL
Sequence of E3 ubiquitin-protein ligase Mdm2 (Q00987 whole entry): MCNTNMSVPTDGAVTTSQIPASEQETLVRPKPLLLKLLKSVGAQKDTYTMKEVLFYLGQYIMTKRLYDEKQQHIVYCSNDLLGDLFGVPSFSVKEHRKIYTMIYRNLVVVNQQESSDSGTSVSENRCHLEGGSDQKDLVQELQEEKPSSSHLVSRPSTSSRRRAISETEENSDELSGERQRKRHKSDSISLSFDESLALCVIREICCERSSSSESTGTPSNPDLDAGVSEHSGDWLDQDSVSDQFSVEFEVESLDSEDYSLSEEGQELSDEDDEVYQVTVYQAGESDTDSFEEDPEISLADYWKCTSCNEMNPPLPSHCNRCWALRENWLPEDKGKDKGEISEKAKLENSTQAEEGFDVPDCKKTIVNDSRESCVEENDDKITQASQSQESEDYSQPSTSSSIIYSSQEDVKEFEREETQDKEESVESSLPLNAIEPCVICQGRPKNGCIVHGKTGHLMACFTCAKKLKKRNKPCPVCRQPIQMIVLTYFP

O=C(/C(=C(\[S-])Nc1ccc(SC(F)F)cc1)[n+]1ccccc1)c1cc(Cl)ccc1Cl
EC50 [1]: > 167 µM (inactive)

COC(=O)c1ccc(COc2ccc3c(c2)CCC3)o1
IC50 [2]: > 7 µM (active) | AC50 [3]: > 35 µM (active) | AC50 [4]: > 35 µM (active)

COc1c(OC(C)=O)ccc(/C=C/c2ccc3ccccc3n2)c1[N+](=O)[O-]
CC50 [5]: 33.2 µM (active)

Clc1ccc(-c2nc3n(n2)Cc2ccccc2-3)cc1
IC50 [6]: > 67.5 µM (inactive) | EC50 [7]: > 67.5 µM (inactive) | EC50 [8]: > 67.5 µM (inactive) | EC50 [9]: > 67.5 µM (inactive)

Cc1cc(NC(=O)Cn2cnc3c(nnn3-c3cccc(F)c3)c2=O)no1
IC50 [10]: > 100 µM (active)

Cc1cc(C(=O)CSc2nnc(Nc3ccccc3)s2)c(C)n1CC1CCCO1 (stereo unspecified)
EC50 [11]: 20.4 µM (not active)

N#Cc1ccc(/C=C\c2[nH]ccc3c4ccccc4nc2-3)cc1
AC50 [12]: 24.2 µM (active) | EC50 [13]: > 91.2 µM (inactive) | AC50 [14]: 40.7 µM (active) | AC50 [15]: > 52 µM (inactive) | EC50 [16]: > 91.2 µM (inactive)

CCCN1C[C@H](C)[C@@H](OC)CN(C)C(=O)c2cc(NC(=O)c3cccc(F)c3)ccc2OC[C@@H]1C
AC50 [17]: 19.8 µM (active) | AC50 [18]: 19.8 µM (active)

CN(C[C@H]1N[C@@H](CO)[C@@H]1c1ccc(-c2cccnc2)cc1)C(=O)c1ccccc1
AC50 [19]: 5.14 µM (active) | AC50 [20]: 15.8 µM (active) | AC50 [21]: 23.4 µM (active) | AC50 [22]: 14.5 µM (active) | AC50 [23]: 7.22 µM (active) | AC50 [24]: 9.82 µM (active) | AC50 [25]: > 32 µM (inactive) | AC50 [26]: 7.42 µM (active) | AC50 [27]: 2.89 µM (active) | AC50 [28]: 5.83 µM (active) | AC50 [29]: 11.3 µM (active) | AC50 [30]: 13.8 µM (active) | AC50 [31]: 8.64 µM (active)
